According to ChEMBL document CHEMBL1147805, “A new non-azole inhibitor of ABA 8'-hydroxylase: effect of the hydroxyl group substituted for geminal methyl groups in the six-membered ring” (Bioorg Med Chem Lett, 2006):
The source made the active and inactive calls. No cut-off for these calls is given here.

Columns and labels:
[1] = biological target: T1, Abscisic acid 8'-hydroxylase 3 (Arabidopsis thaliana, UniProt Q9FH76); assay: Activity against CYP707A3 by rice seedling elongation assay at 1 uM; format: functional; details: oryza sativa
T1 sequence (Q9FH76 whole entry): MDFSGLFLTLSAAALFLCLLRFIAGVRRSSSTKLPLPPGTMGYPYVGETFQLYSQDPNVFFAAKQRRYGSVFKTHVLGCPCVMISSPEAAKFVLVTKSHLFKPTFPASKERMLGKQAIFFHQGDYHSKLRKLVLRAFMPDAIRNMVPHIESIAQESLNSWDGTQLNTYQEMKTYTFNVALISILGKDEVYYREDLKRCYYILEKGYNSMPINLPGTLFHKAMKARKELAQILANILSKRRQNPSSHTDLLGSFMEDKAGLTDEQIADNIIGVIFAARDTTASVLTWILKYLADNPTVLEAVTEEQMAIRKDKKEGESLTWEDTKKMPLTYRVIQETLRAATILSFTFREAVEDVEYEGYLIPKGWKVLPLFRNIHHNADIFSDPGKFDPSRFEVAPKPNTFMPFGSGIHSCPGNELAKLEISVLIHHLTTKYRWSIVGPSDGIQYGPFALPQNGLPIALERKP

[2] = biological target: T1, Abscisic acid 8'-hydroxylase 3; assay: Inhibition of Arabidopsis recombinant CYP707A3
[3] = tested on: Radish; assay: Induction of drought-stress tolerance in radish seedlings at 400 uM; format: functional, organism-based; details: Raphanus sativus
[4] = biological target: T1, Abscisic acid 8'-hydroxylase 3; assay: Activity against CYP707A3 by rice seedling elongation assay at 30 uM; format: functional; details: oryza sativa

Row | SMILES | Activity [1] [%] | Ki [2] [nM] | Activity [3] | Activity [4] [%]
1 | CC1=CC(=O)CC(C)(C)C1(O)/C=C/C(C)=C\C(=O)O (stereo unspecified) [ABSCISIC ACID] | 22 |  |  | 
2 | C[C@H]1CCC[C@H](O)[C@@]1(O)/C=C/C=C\C(=O)O |  | 140 | Active | 96
3 | C[C@@H]1CCC[C@H](O)[C@@]1(O)/C=C/C=C\C(=O)O (racemic) |  |  | inactive | 
4 | C[C@H]1CCCC(C)(C)[C@@]1(O)/C=C/C=C\C(=O)O |  | 1400 |  | 
